Where no end group is shown, it is not given here.

In one series the target is T1, MAVS proteins (Mus musculus, UniProt Q8VCF0).
T1 construct: mitochondria in IC21 were isolated with a hypotonic buffer and centrifugation; endogenous in cells; host or cells: IC21 mouse peritoneal macrophage cell line
T1 sequence (Q8VCF0 1-503): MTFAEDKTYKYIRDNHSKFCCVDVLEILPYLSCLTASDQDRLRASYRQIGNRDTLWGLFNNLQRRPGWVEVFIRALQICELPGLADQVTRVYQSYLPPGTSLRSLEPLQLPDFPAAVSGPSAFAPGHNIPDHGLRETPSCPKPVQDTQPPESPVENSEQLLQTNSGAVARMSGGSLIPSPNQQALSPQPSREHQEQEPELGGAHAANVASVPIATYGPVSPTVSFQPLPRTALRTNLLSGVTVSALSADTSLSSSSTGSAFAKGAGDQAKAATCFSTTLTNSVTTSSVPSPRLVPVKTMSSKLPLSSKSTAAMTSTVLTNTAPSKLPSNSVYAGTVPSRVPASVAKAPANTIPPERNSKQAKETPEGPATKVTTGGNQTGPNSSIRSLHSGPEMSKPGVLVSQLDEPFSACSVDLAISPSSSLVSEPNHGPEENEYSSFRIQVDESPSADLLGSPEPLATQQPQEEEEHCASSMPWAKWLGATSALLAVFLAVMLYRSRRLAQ
Kind of series: MAVS aggregation induced by LPS and nigericin, Western blot of isolated mitochondria. The format is cell-based. Conditions: 5 mM peptide; IC21; 1 mg/ml LPS 4 hours then 5 mM nigericin 1 hour; vs control group treated with endotoxin and nigericin. As to the method: Specifically, the aggregation of MAVS proteins was induced by stimulation with pathogen-associated molecular patterns (PAMPs), and endotoxin (lipopolysaccharide (LPS)) and nigericin were used as the PAMPs. First, 5 mM MQP-15, MQP-23, MQP-31 or MQP-37 was added to a serum-free cell culture medium containing 1 mg/ml LPS, followed by treatment with 1×10^5 cells of a mouse peritoneal macrophage cell line (IC21) for 4 hours. Then, 5 mM MQP-15, MQP-23, MQP-31 or MQP-37 was added to a serum-free cell culture medium containing 5 mM nigericin, followed by treatment with IC21 for additional 1 hour. Thereafter, mitochondria in IC21 were isolated with a hypotonic buffer and centrifugation. Then, in order to check the result of MAVS aggregation by the Western blot, a sample was prepared using a semi-denaturing detergent in the isolated mitochondria and electrophoresis was performed. After the electrophoretically isolated mitochondrial protein was transferred to a polyvinylidene difluoride (PVDF) membrane, a primary antibody recognizing the MAVS proteins and a secondary antibody recognizing the primary antibody were additionally treated. Thereafter, the aggregation of MAVS proteins was checked by inducing a chemiluminescence reaction of the secondary antibody.
(In general: In western blotting, separated proteins are transferred to a membrane and probed.)

Another series relates to interferon-beta (IFN-b). Kind of series: polyIC-induced IFN-b expression in MLE-12 cells, ELISA. It is filed as cell-based, mouse. Conditions: 5 mg/ml polyIC, 16 hours; for expression level of IFN-b: vs control group treated only with polyIC. As for the experimental part: Specifically, polyinosinic:polycytidylic acid (polyIC), which is a synthetic ribonucleic acid known to be associated with viral infection among the PAMPs and promotes the production of interferon and is analogous to an RNA virus gene, was used to induce a viral infection response. First, a serum-free cell culture medium containing 5 mg/ml polyIC and MQP-15, MQP-23, MQP-31, MQP-37, MQP-Y9 or MQP-T234 was treated with 1×10^5 cells of a mouse lung epithelial cell line (MLE-12) for 16 hours. Then, the supernatant was obtained and the expression level of interferon-beta (IFN-b) was checked by enzyme-linked immunosorbent assay (ELISA).
(§1) Specifically, LPS and ATP were used to induce an inflammasome response caused by bacterial infection, and polyIC was used to induce an inflammatory response caused by viral infection. First, 1 mg/ml LPS and 5 mM or 1 mM novel alanine-substituted peptide were mixed in a serum-free cell culture medium, followed by treatment with 1×10^5 cells of IC21. Thereafter, 5 mM ATP and 5 mM or 1 mM novel alanine-substituted peptide were mixed in a serum-free cell culture medium and treated for 30 minutes. Then, the supernatant was obtained and the expression level of IL-1b was checked by ELISA. Also, 5 mg/ml polyIC and 25 mM or 2 mM novel alanine-substituted peptide were mixed in a serum-free cell culture medium, followed by treatment with 1×10^5 cells of MLE-12 for 16 hours. Thereafter, the supernatant was obtained and the expression level of IFN-b was checked by ELISA.
as §1, with “2” for “5 mM or 1”, “amino acid-substituted” for “alanine-substituted”, “and” for “and 25 mM or”
Specifically, polyIC was used to induce a viral infection response. First, a serum-free cell culture medium containing 5 mg/ml polyIC and MQP-37, MQP-37A6, MQP-37D6W, MQP-37D6Y, MQP-37D6H, MQP-37D6K, MQP-37D6R or MQP-37D6V was treated with 1×10^5 cells of MLE-12 for 16 hours. Then, the supernatant was obtained and the expression level of IFN-b was checked by ELISA.

The subject of the next series is IL-1b. The experiment in a line: LPS/ATP-induced IL-1b expression (inflammasome response) in IC21, ELISA. It is filed as cell-based, mouse. Conditions: 1 mg/ml LPS, 5 mM ATP 30 minutes, 2 mM peptide. As to the method: as §1
as §1, with “2” for “5 mM or 1”, “amino acid-substituted” for “alanine-substituted”, “and” for “and 25 mM or”
Specifically, LPS was used to induce an inflammatory response caused by bacterial infection. First, MQP-37 or MQP-37A6 was added to a serum-free cell culture medium containing 0.1 mg/ml LPS, followed by treatment with 1×10^5 cells of IC21 for 6 hours. Then, the supernatant was obtained and the expression level of IL-6 was checked by ELISA. Also, the Western blot was performed and the phosphorylation of NF-κB was checked to identify the mechanism of immune activation response. Thereafter, LPS and ATP were used to induce an inflammasome response caused by bacterial infection, LPS and ATP were used. First, 1 mg/ml LPS and L- or D-MQP-37 and MQP-37A6 were mixed in a serum-free cell culture medium and treated with 1×10^5 cells of IC21. Then, 5 mM ATP and MQP-37 or MQP-37A6 were mixed in a serum-free cell culture medium and treated for 30 minutes. Thereafter, the supernatant was obtained and the expression level of IL-1b was checked by ELISA.
In general terms: ELISA stands for enzyme-linked immunosorbent assay.

In the next series the test system is IC21. The experiment in a line: XTT cytotoxicity test. The format is cell-based, mouse. As to conditions: at a concentration of 10 mM; FIGS. 4-B and 4-C. As for the experimental part: Specifically, in order to check the cytotoxicity of the peptides, the XTT test method for measuring the activity of mitochondria in cells was used. First, […] 16 hours, followed by XTT assay for 1 hour to measure the amount of water-soluble formazan produced by reduction by dehydrogenase in the mitochondria.
(In general: Tetrazolium assays rely on reduction of a dye to a coloured formazan, in cell work by metabolically active cells.)

The subject of series [1] is interleukin-1beta (IL-1b). Kind of series: IL-1b expression induced by LPS, OMV or LPS and nigericin in IC21, ELISA. As to conditions: 1 mg/ml LPS 4 hours, 5 mM nigericin 1 hour, FIG. 5B-D. The format is cell-based, mouse. As for the experimental part:
Specifically, LPS (lipopolysaccharide) and Gram-negative bacteria-derived outer membrane vesicle (OMV) were used as endotoxins to induce the inflammasome response caused by bacterial infection. First, 5 mM MQP-15, MQP-23, MQP-31 or MQP-37 was added to a serum-free cell culture medium containing 0.1 mg/ml LPS or OMV, followed by treatment with 1×10^5 cells of IC21 for 6 hours. Also, MQP-37 or MQP-Y9 was added to a serum-free cell culture medium containing 1 mg/ml LPS and 5 mM nigericin, followed by treatment for 5 hours (LPS treatment-4 hours; nigericin treatment-1 hour). Then, the supernatant was obtained and the expression level of interleukin-1beta (IL-1b) was checked by ELISA, and the cells were lysed and subjected to SDS-PAGE, and the inflammasome factors were analyzed by the Western blot.

The test system of the next series is NF-κB. Kind of series: LPS-induced phosphorylation of NF-kB in IC21, Western blot. As to conditions: 5 mM peptide, 10 ng/ml endotoxin, 6 hours, vs control treated with LPS only. It is filed as cell-based, mouse.
Another series relates to interleukin-6 (IL-6). The experiment in a line: LPS-induced IL-6 expression in IC21, ELISA. It is filed as cell-based, mouse. Conditions: 0.1 mg/ml LPS, 6 hours.
The test system of a further series is MLE-12. Kind of series: Cytotoxicity at maximum concentration (Example 13). Conditions: at the maximum concentration in the experiment; FIG. 13B-F. It is filed as cell-based, mouse.

Excerpt for NF-κB: Specifically, LPS was used to induce an immune activation response caused by bacterial infection, and the phosphorylation of nuclear factor kappa-light-chain-enhancer of activated B cells (NF-kB) was checked to identify the mechanism of the immune activation response. […] Thereafter, the cells were washed with a PBS solution and then lysed with a RIPA buffer, and the supernatant was separated. In order to measure the change in the phosphorylation amount of NF-κB protein with the separated supernatant, the Western blot was performed as in Example 2.
Description for interleukin-6 (IL-6): Specifically, LPS was used to induce an inflammatory response caused by bacterial infection. First, MQP-15, MQP-23, MQP-31, MQP-37 or MQP-Y9 was added to a serum-free cell culture medium containing 0.1 mg/ml LPS, followed by treatment with 1×10^5 cells of IC21 for 6 hours. Then, the supernatant was obtained and the expression levels of interleukin-6 (IL-6) and a tumor necrosis factor-alpha (TNF-a) were checked by ELISA.

Consider “MQP-15: novel peptide complementary to a MAVS domain sequence (hydropathic complementarity); sequence not tied to the code in the text (LKSLKTLH; MQP-15)”, for which the “aggregation of MAVS proteins” value with MAVS proteins is reported as “decreased”. In addition, the “expression level of IFN-b” value in the series on interferon-beta (IFN-b) is listed as “decreased”.
For “MQP-37D6W: MQP-37 whose sixth amino acid (aspartic acid) is substituted with tryptophan (SLVLAWARW; MQP-37D6W)”, in the series on interferon-beta (IFN-b) (2 mM peptide, FIG. 10B-C), the “inflammatory response caused by viral infection (IFN-b), sixth amino acid of MQP-37 substituted, compared to the original peptide” value is reported as “effectively inhibited even at a low peptide concentration”. For the same substance, the “inhibiting the inflammatory response caused by viral infection (IFN-b), compared to MQP-37 and MQP-37A6” value in the series with interferon-beta (IFN-b) (concentration-dependent, FIGS. 13A-A and 13A-B) was “outstanding effect”.
Take “MQP-23: novel peptide complementary to a MAVS domain sequence (hydropathic complementarity); sequence not tied to the code in the text (LQHLEDGM; MQP-23)”: the “aggregation of MAVS proteins” value with MAVS proteins was “decreased”. Moreover, the “expression level of IFN-b” value with interferon-beta (IFN-b) is listed as “decreased”.
For “MQP-37D6H: MQP-37 whose sixth amino acid (aspartic acid) is substituted with histidine (SLVLAHARW; MQP-37D6H)”, in the series on interferon-beta (IFN-b) (FIGS. 13A-C and 13A-D), the “inflammatory response caused by viral infection (IFN-b)” value is “inhibited the inflammatory response caused by viral infection in a concentration-dependent manner”. The “inflammasome response caused by bacterial infection (IL-1b), sixth amino acid of MQP-37 substituted” value in the series on IL-1b (FIG. 10A-B) is on record as “effectively”.
For “MQP-31: novel peptide complementary to a MAVS domain sequence (hydropathic complementarity); sequence not tied to the code in the text (DGTECR; MQP-31)”, the “aggregation of MAVS proteins” value in the series with MAVS proteins is on record as “decreased”. For the same substance, the “expression level of IFN-b” value in the series with interferon-beta (IFN-b) was “decreased”.
Consider “MQP-T234: novel anti-inflammatory peptide prepared in Example 1 (KVGDRARWGSRS; MQP-T234)”, for which, in the series on interferon-beta (IFN-b), the “expression level of IFN-b” value is listed as “decreased”.
As for SLVLADARW [MQP-37], the “cytotoxicity (XTT)” value in the series on IC21 was “did not exhibit any cytotoxicity”.
As to KRLLFWIFIK [MQP-Y9], the “cytotoxicity (XTT)” value in the series with IC21 is listed as “did not exhibit any cytotoxicity”. Besides, the “production of IL-1b after LPS and nigericin treatment” value in series [1] is reported as “inhibited in an MQP-Y9 concentration-dependent manner”. For the same substance, in the series on NF-κB, the “phosphorylation amount of NF-κB” value is given as “significantly decreased”. Further, in the series with interferon-beta (IFN-b), the “expression level of IFN-b with various concentrations of peptide” value was “decreased in a concentration-dependent manner” and the “expression level of IFN-b” value was “decreased”. In the series on interleukin-6 (IL-6), the “expression level of IL-6 after LPS treatment with various concentrations of peptide” value is “decreased in a concentration-dependent manner”.
“MQP-37A1: prepared by substituting the first amino acid of MQP-37A6 with alanine (ALVLADARW; MQP-37A1)”: in the series on IL-1b (FIG. 10A-A), the “inflammasome response caused by bacterial infection (IL-1b), first amino acid substituted” value was “most effectively”.
Consider SLVLAYARW [MQP-37D6Y], for which, in the series with MLE-12, the cytotoxicity result is “did not show cytotoxicity”.

The values are drawn from patent US12729221B2, “Anti-inflammatory peptide and use thereof” (MITO QUEST CO., LTD., priority 2020, dated 2026).
